Data as given in ChEMBL document CHEMBL5154678, “Lysine Stapling Screening Provides Stable and Low Toxic Cationic Antimicrobial Peptides Combating Multidrug-Resistant Bacteria In Vitro and In Vivo” (J Med Chem, 2022).
Values after ≈ are worked out from the molar mass of the structure shown. Active and inactive are the calls of the source. The calls are words filed in the database; no cut-off is given here. Starred links: 1 amine or outer side, 2 acyl side, 3 side chain; linkers in the order of their positions; H or OH if unused. Positions of bridges follow the written chain, without caps; N, C: chain ends. Non-standard residues stand in square brackets, D forms with d. Residues, ends and D or L forms follow the SMILES beside them. X1 = O=C([C@H](CCCCNCC=[*:3])N[*:1])[*:2]

How the values were obtained:
[1] = Toxicity in C57BL/6 mouse assessed as effect on blood urea nitrogen level at 5 to 20 mg/kg, ip administered once daily for 5 days and measured after 6 days; assay type: organism-based; details: in vivo, 120 h, dose 5-20 mg/kg, time 5 day
[2] = Toxicity in C57BL/6 mouse assessed as effect on alanine aminotransferase level at 5 to 20 mg/kg, ip administered once daily for 5 days and measured after 6 days; assay type: organism-based; details: in vivo, 120 h, dose 5-20 mg/kg, time 5 day
[3] = Toxicity in C57BL/6 mouse assessed as effect on body weight at 5 to 20 mg/kg, ip administered once daily for 5 days and measured every 24 hrs; assay type: organism-based; details: in vivo, 120 h, dose 5-20 mg/kg, time 5 day
[4] = system: Staphylococcus aureus; assay: Antibacterial activity against methicillin-resistant Staphylococcus aureus BNCC 186335 infected in mouse C57BL/6 assessed as reduction in intracellular bacterial burden in spleen at 2 mg/kg ,ip incubated for 24 hrs; assay type: functional, organism-based
[5] = system: Cell membrane; assay: Induction of membrane disruption in multidrug-resistant Acinetobacter baumannii assessed as loss of cell integrity at 16 ug/ml measured after 2 hrs by SEM analysis; assay type: subcellular; details: dose 16.0 µg/ml
[6] = system: Cell membrane; assay: Induction of membrane disruption in methicillin-resistant Staphylococcus aureus BNCC 186335 assessed as loss of cell integrity at 16 ug/ml measured after 2 hrs by SEM analysis; assay type: subcellular; details: dose 16.0 µg/ml
[7] = system: Cell membrane; assay: Induction of membrane damage in multidrug-resistant Acinetobacter baumannii assessed as concentration of stained cells incubated for 2 hrs by propidium iodide staining based flow cytometer assay; assay type: subcellular; details: dose 16.0 µg/ml
[8] = system: Cell membrane; assay: Induction of membrane damage in methicillin-resistant Staphylococcus aureus BNCC 186335 assessed as concentration of stained cells incubated for 2 hrs by propidium iodide staining based flow cytometer assay; assay type: subcellular; details: DDE = dose-dependent effect
[9] = system: Staphylococcus aureus; assay: Antibacterial activity against methicillin-resistant Staphylococcus aureus assessed as inhibition of bacterial growth incubated for 16 hrs by broth microdilution method; assay type: functional
[10] = system: Staphylococcus aureus; assay: Antibacterial activity against Staphylococcus aureus BNCC 186335 assessed as inhibition of bacterial growth incubated for 16 hrs by broth microdilution method; assay type: functional
[11] = system: Listeria monocytogenes; assay: Antibacterial activity against Listeria monocytogenes assessed as inhibition of bacterial growth incubated for 16 hrs by broth microdilution method; assay type: functional
[12] = system: Staphylococcus aureus; assay: Antibacterial activity against methicillin-resistant Staphylococcus aureus BNCC 186335 infected in mouse C57BL/6 assessed as reduction in intracellular bacterial burden in liver at 2 mg/kg ,ip incubated for 24 hrs; assay type: functional, organism-based
[13] = system: Pseudomonas aeruginosa; assay: Antibacterial activity against Pseudomonas aeruginosa BNCC 125486 assessed as inhibition of bacterial growth incubated for 16 hrs by broth microdilution method; assay type: functional
[14] = system: Escherichia coli; assay: Antibacterial activity against Escherichia coli BNCC 133264 assessed as inhibition of bacterial growth incubated for 16 hrs by broth microdilution method; assay type: functional
[15] = system: Escherichia coli; assay: Antibacterial activity against cephalosporin-resistant Escherichia coli BNCC 133264 assessed as inhibition of bacterial growth incubated for 16 hrs by broth microdilution method; assay type: functional
[16] = system: Erythrocyte; assay: Hemolytic activity against human RBC assessed as concentration required to cause 10% hemolysis; assay type: toxicity, cell-based
[17] = system: HEK-293T; assay: Cytotoxicity against human HEK293T cells assessed as cell survival rate at 64 Ug/ml incubated for 24 hrs by MTT assay relative to control; assay type: toxicity, cell-based; details: dose 64 µg/ml
[18] = system: Staphylococcus aureus; assay: Antibacterial activity against methicillin-resistant Staphylococcus aureus BNCC 186335 assessed as inhibition of bacterial growth incubated for 4 hrs in presence of 25% plasma by broth microdilution method; assay type: functional
[19] = Stability in human plasma assessed as half life measured after 24 hrs by HPLC analysis; assay type: ADME, cell-free
[20] = system: Enterococcus faecium; assay: Antibacterial activity against multidrug-resistant Enterococcus faecium assessed as inhibition of bacterial growth incubated for 16 hrs by broth microdilution method; assay type: functional
[21] = system: Staphylococcus aureus; assay: Antibacterial activity against multidrug-resistant Staphylococcus aureus BNCC 186335 assessed as inhibition of bacterial growth incubated for 16 hrs by broth microdilution method; assay type: functional
[22] = system: Klebsiella pneumoniae; assay: Antibacterial activity against multidrug-resistant Klebsiella pneumoniae assessed as inhibition of bacterial growth incubated for 16 hrs by broth microdilution method; assay type: functional
[23] = system: Acinetobacter baumannii; assay: Antibacterial activity against multidrug-resistant Acinetobacter baumannii assessed as inhibition of bacterial growth incubated for 16 hrs by broth microdilution method; assay type: functional
[24] = system: Pseudomonas aeruginosa; assay: Antibacterial activity against multidrug-resistant Pseudomonas aeruginosa BNCC 125486 assessed as inhibition of bacterial growth incubated for 16 hrs by broth microdilution method; assay type: functional
[25] = system: Escherichia coli; assay: Antibacterial activity against multidrug-resistant Escherichia coli BNCC 133264 assessed as inhibition of bacterial growth incubated for 16 hrs by broth microdilution method; assay type: functional
[26] = system: Acinetobacter baumannii; assay: Bactericidal activity against multidrug-resistant Acinetobacter baumannii assessed as log reduction in colony forming unit at 32 ug/ml measured after 10 mins by time kill assay; assay type: functional, organism-based; details: dose 32.0 µg/ml
[27] = system: Cell membrane; assay: Induction of membrane damage in methicillin-resistant Staphylococcus aureus BNCC 186335 assessed as disruption of membrane integrity at 16 ug/ml incubated for 2 hrs by propidium iodide staining based assay; details: dose 16.0 µg/ml
[28] = Toxicity in C57BL/6 mouse assessed as effect on aspartate transaminase level at 5 to 20 mg/kg, ip administered once daily for 5 days and measured after 6 days; assay type: organism-based; details: in vivo, 120 h, dose 5-20 mg/kg, time 5 day
[29] = Toxicity in C57BL/6 mouse assessed as abnormalities and pathological changes in liver at 20 mg/kg, ip administered once daily for 5 days by H and E staining based assay; assay type: organism-based; details: in vivo, 120 h, time 5 day
[30] = Toxicity in C57BL/6 mouse assessed as abnormalities and pathological changes in kidney at 20 mg/kg, ip administered once daily for 5 days by H and E staining based assay; assay type: organism-based; details: in vivo, 120 h, time 5 day
[31] = system: HEK-293T; assay: Cytotoxicity against human HEK293T cells assessed as cell survival rate at 256 ug/ml incubated for 24 hrs by MTT assay; assay type: toxicity, cell-based; details: dose 256 µg/ml
[32] = system: Staphylococcus aureus; assay: Drug resistance development in Staphylococcus aureus assessed as change in MIC at sub-MIC concentration measured after 60 passages; assay type: functional, organism-based

Compound: CC(C)[C@H](N)C(=O)N[C@@H](CCCCN)C(=O)N[C@@H](CCCNC(=N)N)C(=O)N[C@@H](Cc1ccccc1)C(=O)N[C@@H](CCCCN)C(=O)N[C@H]1CCCCNC/C=C/CNCCCC[C@@H](C(=O)N[C@@H](Cc2ccccc2)C(=O)N[C@@H](CCCCN)C(=O)N[C@@H](CCCCN)C(=O)N[C@@H](Cc2ccccc2)C(=O)N[C@H](C(N)=O)C(C)C)NC(=O)[C@H](CCCNC(=N)N)NC(=O)[C@H](Cc2ccccc2)NC(=O)[C@H](Cc2ccccc2)NC1=O (H-VKRFK[X1]FFR[X1]FKKFV-NH2; staple (E) 6-10)
- Activity [1]: Non-Toxic
- Activity [2]: Non-Toxic
- Activity [3]: Non-Toxic
- Activity [4]: Active
- Activity [5]: Active
- Activity [6]: Active
- Activity [7]: 80%
- Activity [8]: Dde
- MIC [9]: 2 µg/mL (≈ 0.959 µM)
- MIC [10]: 2 µg/mL (≈ 0.959 µM)
- MIC [11]: 4 µg/mL (≈ 1.92 µM)
- Activity [12]: Active
- MIC [13]: 16 µg/mL (≈ 7.68 µM)
- MIC [14]: 2 µg/mL (≈ 0.959 µM)
- MIC [15]: 8 µg/mL (≈ 3.84 µM)
- MHC [16]: > 128 µg/mL
- Activity [17]: Toxic
- Activity [18]: Active
- half-life [19]: 13 h
- MIC [20]: 4 µg/mL (≈ 1.92 µM)
- MIC [21]: 8 µg/mL (≈ 3.84 µM)
- MIC [22]: 32 µg/mL (≈ 15.4 µM)
- MIC [23]: 4 µg/mL (≈ 1.92 µM)
- MIC [24]: 8 µg/mL (≈ 3.84 µM)
- MIC [25]: 4 µg/mL (≈ 1.92 µM)
- Activity [26]: Active
- Activity [27]: Active
- Activity [28]: Non-Toxic
- Activity [29]: Non-Toxic
- Activity [30]: Non-Toxic
- Activity [31]: Toxic
- Activity [32]: Active
